Values of other authors in patent US7022698B2, “Pharmaceutical compositions containing new polymorphic forms of olanzapine and uses thereof” (U & I Pharmaceuticals, Ltd., priority 1999, dated 2006).
Read-outs that look alike come from different tables or passages of the source.

How the values were obtained:
[1] = system: schizophrenia and schizoaffecive and schizophreniform disorders; conditions: for Montgomery-Asberg Depression Rating Scale (MADRS) total score, baseline to endpoint decline: 6-week trial, p=0.001
[2] = system: serotonin (5-HT) receptors
[3] = system: inpatients with psychotic depression
[4] = system: patients with schizophrenia; conditions: 10 mg/day, in comparison with olanzapine 1 mg/day or placebo
[5] = system: patients with Acute Mania; conditions: 5–20 mg/day
[6] = system: muscarinic cholinergic receptor
bipolar type I patients = conditions: mean dose 13.8 mg/day
[7] = system: patients with Alzheimer's disease (AD)
[8] = system: inpatients with a diagnosis of psychotic disorders
[9] = system: psychotic mood disorders patients and schizophrenic patients
[10] = system: dopamine receptors (D1 to D5)

O=C(CCCN1CCC(O)(c2ccc(Cl)cc2)CC1)c1ccc(F)cc1 [haloperidol]
Montgomery-Asberg Depression Rating Scale (MADRS) total score, baseline to endpoint decline [1]: 3 point

Cc1cc2c(s1)Nc1ccccc1N=C2N1CCN(C)CC1 [olanzapine, 2-methyl-4-(4-methyl-1-piperazinyl)-10H-thieno-[2,3b][1,5] benzodiazepine]
affinity for serotonergic receptors [2]: nanomolar affinity | inhibition of 5-HT receptors ([2]; 5-HT2A, 5-HT2B, 5-HT2C, and 5-HT6 receptors): potent inhibitor | response rate [3]: 67% | affinity for α1-adrenergic receptors (α1-adrenergic receptors): nanomolar affinity | inhibition of α-adrenergic receptor (α1-adrenergic receptors): potent inhibitor | Hamilton Rating Scale for Depression scores [4]: significant reduction | percentage of patients who discontinued treatment because of lack of efficacy ([5]; p=0.02 vs placebo): 28.6% | patients with an improvement of 50% or more in Young Mania Rating Scale total score ([5]; responder analysis): 48.6% | affinity for muscarinic receptors [6]: nanomolar affinity | inhibition of muscarinic cholinergic receptor ([6]; all five subtypes): potent inhibitor | mesolimbic and mesocortical selectivity: mesolimbic and mesocortical selectivity | HAM-D score at baseline (bipolar type I patients; 113 patients): 12.2 | YMRS score at baseline (bipolar type I patients; 113 patients): 25.5 | HAM-D score on follow-up (bipolar type I patients; average 6.7 months, p<0.001): 6.5 | YMRS score on follow-up (bipolar type I patients; average 6.7 months, p<0.001): 7.5 | EPS (bipolar type I patients): Few EPS were noted | efficacy in reducing psychotic symptoms, parent study ([7]; 5-mg/day dose): most efficacious | safety, parent study ([7]; 5-mg/day dose): safest | efficacy in reducing psychotic symptoms, parent study ([7]; 10-mg/day dose, relative to placebo): significant efficacy | expression of psychotic symptoms, parent study ([7]; 15-mg/day dose): failed to separate from the placebo group | safety, parent study ([7]; 15-mg/day dose): less tolerated safety profile | emergence of psychotic symptoms compared to placebo ([7]; possible AD with agitation/aggression and no or minimal hallucinations and/or delusions): significantly lower emergence of psychotic symptoms | overall response rate ([8]; all patients): 62% | response rate ([8]; bipolar disorder patients): 83% | Montgomery-Asberg Depression Rating Scale (MADRS) total score, baseline to endpoint decline [1]: 6 point | reduction of the MADRS scores ([1]; subanalysis, schizoaffective patients currently depressed, p=0.002): superior to haloperidol | decrease of Brief Psychiatric Rating Scale (BPRS) mania score ([1]; subanalysis, schizoaffective patients currently manic, p=0.25): as effective as haloperidol | K Axis V subscale scores, baseline to follow-up ([9]; psychotic mood disorders group, psychological impairment, violence, and social skills subscales): statistically significant change | patients remaining hospitalized at follow-up ([9]; psychotic mood disorders patient group (24/32)): Seventy-five | change on the CGI and GAF-EQ ([9]; psychotic mood disorders patients (N=32) and schizophrenic patients (N=18) who continued olanzapine): statistically significant change toward improvement | K Axis V subscale scores, baseline to follow-up ([9]; schizophrenic group, only on the violence subscale): significant change in score only on the violence subscale | patients remaining hospitalized at follow-up ([9]; schizophrenic patients (18/18)): 100% | affinity for dopaminic receptors [10]: nanomolar affinity | binding selectivity among dopamine receptors ([10]; D1 to D5): relatively non-selective binding
